# Square brackets hold non-standard residues; d marks the D form. Peptide text beside a SMILES is read from it. Dip = N[C@H](C(=O)O)C(c1ccccc1)c1ccccc1; Abu(4,4-F2) = N[C@@H](CC(F)F)C(=O)O; Cha = N[C@@H](CC1CCCCC1)C(=O)O
# Target: Genome polyprotein (Hepatitis C virus genotype 1a (isolate 1) (HCV), UniProt P26664)
# Test: Inhibition to hepatitis C virus (HCV) NS3/NS4A serine protease
# Genome polyprotein, sequence (P26664 1027-1657 limits assumed): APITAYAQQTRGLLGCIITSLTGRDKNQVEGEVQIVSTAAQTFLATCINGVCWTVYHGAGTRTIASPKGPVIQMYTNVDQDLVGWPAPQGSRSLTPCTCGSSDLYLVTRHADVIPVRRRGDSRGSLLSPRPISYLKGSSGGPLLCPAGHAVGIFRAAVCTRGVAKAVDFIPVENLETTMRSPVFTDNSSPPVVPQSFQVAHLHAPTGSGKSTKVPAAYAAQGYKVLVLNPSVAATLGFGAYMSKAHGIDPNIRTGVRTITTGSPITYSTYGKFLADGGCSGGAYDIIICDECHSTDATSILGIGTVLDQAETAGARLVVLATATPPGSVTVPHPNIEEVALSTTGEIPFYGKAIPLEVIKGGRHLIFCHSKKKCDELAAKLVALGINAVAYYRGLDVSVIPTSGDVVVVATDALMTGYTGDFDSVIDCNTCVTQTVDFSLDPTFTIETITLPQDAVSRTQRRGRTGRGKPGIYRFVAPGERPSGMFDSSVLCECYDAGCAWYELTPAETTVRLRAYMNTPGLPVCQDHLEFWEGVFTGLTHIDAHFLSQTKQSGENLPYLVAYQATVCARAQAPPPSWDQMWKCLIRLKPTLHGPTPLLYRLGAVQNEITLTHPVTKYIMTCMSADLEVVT
# Genome polyprotein, sequence (P26664 1658-1711 limits assumed): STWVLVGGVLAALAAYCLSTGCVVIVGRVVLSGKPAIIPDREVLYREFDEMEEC
row,Structure (SMILES),IC50 [µM]
1,CC(C)(C)OC(=O)N[C@@H](CCC(=O)O)C(=O)N[C@@H](CC(F)F)C(=O)N[C@@H](CC(F)F)C(=O)C(=O)O,0.3
2,CC(=O)N[C@H](C(=O)[C@H](CCC(=O)O)N[C@@H](CC1CCCCC1)C(=O)N[C@H](C=O)CC(F)F)C(c1ccccc1)c1ccccc1,> 50
3,CC(C)C[C@H](NC(=O)[C@H](CCC(=O)O)NC(=O)OC(C)(C)C)C(=O)N[C@@H](CC(F)F)C(=O)C(=O)O,0.33
4,CC(C)C[C@H](NC(=O)[C@H](CC(=O)O)NC(=O)OC(C)(C)C)C(=O)N[C@@H](CC(F)F)C(=O)C(=O)O,1.63
5,CC(C)C[C@H](NC(=O)[C@@H](NC(=O)OC(C)(C)C)C1CCCC1)C(=O)N[C@@H](CC(F)F)C(=O)C(=O)O,0.38
6,CC(=O)N[C@H](C(=O)[C@H](CCC(=O)O)N[C@@H](CC1CCCCC1)C(=O)N[C@@H](CC(F)F)C(=O)O)C(c1ccccc1)c1ccccc1,> 50
7,CC[C@H](C)[C@H](NC(=O)OCc1ccccc1)C(=O)N[C@@H](CC1CCCCC1)C(=O)N[C@@H](CC(F)F)C(=O)C(=O)O,1.4
8,CC(C)C[C@H](NC(=O)[C@@H](NC(=O)OC(C)(C)C)C(C)C)C(=O)N[C@@H](CC(F)F)C(=O)C(=O)O,0.46
9,CC(C)C[C@H](NC(=O)[C@H](C)NC(=O)OC(C)(C)C)C(=O)N[C@@H](CC(F)F)C(=O)C(=O)O,8.9
10,CC(=O)N[C@H](C(=O)[C@H](CCC(=O)O)N[C@@H](CC1CCCCC1)C(=O)N[C@@H](CC(F)F)C(=O)C(=O)O)C(c1ccccc1)c1ccccc1,5.3
11,CC(C)C[C@H](NC(=O)[C@H](CCC(N)=O)NC(=O)OC(C)(C)C)C(=O)N[C@@H](CC(F)F)C(=O)C(=O)O,2.1

# Now from value to compound:
row,IC50 [µM],Structure (SMILES)
1,> 50,CCC(C)[C@H](NC(=O)OCc1ccccc1)C(=O)N[C@@H](CC(C)C)C(=O)N[C@H](CC(=O)O)CC(F)F (stereo partly drawn)
2,> 50,CCC(C)[C@H](NC(=O)OCc1ccccc1)C(=O)N[C@@H](CC(C)C)C(=O)N[C@@H](CC(F)F)C(=O)C(=O)OC (stereo partly drawn)
3,> 50,CCC(C)[C@H](NC(=O)OCc1ccccc1)C(=O)N[C@@H](CC(C)C)C(=O)N[C@@H](CC(F)F)C(O)C(=O)O (stereo partly drawn)
4,3.3,CCC(C)[C@H](NC(=O)NCc1ccccc1)C(=O)N[C@@H](CC(C)C)C(=O)N[C@@H](CC(F)F)C(=O)C(=O)O (stereo partly drawn)
5,9.4,CCC(C)[C@H](NC(=O)OCc1ccccc1)C(=O)N[C@@H](Cc1ccccc1)C(=O)N[C@@H](CC(F)F)C(=O)C(=O)O (stereo partly drawn)
6,1.7,CCC(C)[C@H](NC(=O)OCc1ccc(C(=O)OC)cc1)C(=O)N[C@@H](CC(C)C)C(=O)N[C@@H](CC(F)F)C(=O)C(=O)O (stereo partly drawn)
7,> 50,CC[C@H](C)[C@H](NC(=O)OCc1ccccc1)C(=O)N[C@@H](CC(C)C)C(=O)N[C@H](C=O)CC(F)F
8,3.28,CC[C@H](NC(=O)[C@@H](NC(=O)OCc1ccccc1)[C@@H](C)CC)C(=O)N[C@@H](CC(F)F)C(=O)C(=O)O
9,16,CC[C@H](C)[C@H](NC(C)=O)C(=O)N[C@@H](CC(C)C)C(=O)N[C@@H](CC(F)F)C(=O)C(=O)O
10,1,CC[C@H](C)[C@H](NC(=O)OC(C)(C)C)C(=O)N[C@@H](CC(C)C)C(=O)N[C@@H](CC(F)F)C(=O)C(=O)O
11,15.6,CC[C@H](C)[C@H](NC(=O)OCc1ccccc1)C(=O)N[C@@H](C)C(=O)N[C@@H](CC(F)F)C(=O)C(=O)O
12,> 100,CC[C@H](C)[C@H](NC(=O)OCc1ccccc1)C(=O)NCC(=O)N[C@@H](CC(F)F)C(=O)C(=O)O
13,> 50,CC[C@H](C)[C@H](NC(=O)OCc1ccccc1)C(=O)N[C@@H](CC(C)C)C(=O)N[C@@H](CC(F)F)C(=O)c1nnn[nH]1
14,0.44,CCC(C)[C@H](NC(=O)OCc1ccc(C(=O)O)cc1)C(=O)N[C@@H](CC(C)C)C(=O)N[C@@H](CC(F)F)C(=O)C(=O)O (stereo partly drawn)
15,16,CCC(C)[C@H](NC(=O)OCc1ccccc1)C(=O)N[C@H](C(=O)N[C@@H](CC(F)F)C(=O)C(=O)O)C(C)C (stereo partly drawn)
16,1.7,CC[C@H](C)[C@H](NC(=O)OCc1ccccc1)C(=O)N[C@@H](CC(C)C)C(=O)N[C@@H](CC(F)F)C(=O)C(=O)O

# Target: Hepatitis C virus serine protease, NS3/NS4A (Hepatitis C virus, UniProt A3EZI9+D2K2A8)
# Test: Inhibitory activity against hepatitis C virus (HCV) NS3/NS4A serine protease
# Type: protein-complex assay, Hepacivirus hominis
# Hepatitis C virus serine protease, NS3/NS4A, sequence (D2K2A8 whole entry): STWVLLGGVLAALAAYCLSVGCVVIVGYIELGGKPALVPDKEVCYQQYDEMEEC
# Hepatitis C virus serine protease, NS3/NS4A, sequence (A3EZI9 whole entry): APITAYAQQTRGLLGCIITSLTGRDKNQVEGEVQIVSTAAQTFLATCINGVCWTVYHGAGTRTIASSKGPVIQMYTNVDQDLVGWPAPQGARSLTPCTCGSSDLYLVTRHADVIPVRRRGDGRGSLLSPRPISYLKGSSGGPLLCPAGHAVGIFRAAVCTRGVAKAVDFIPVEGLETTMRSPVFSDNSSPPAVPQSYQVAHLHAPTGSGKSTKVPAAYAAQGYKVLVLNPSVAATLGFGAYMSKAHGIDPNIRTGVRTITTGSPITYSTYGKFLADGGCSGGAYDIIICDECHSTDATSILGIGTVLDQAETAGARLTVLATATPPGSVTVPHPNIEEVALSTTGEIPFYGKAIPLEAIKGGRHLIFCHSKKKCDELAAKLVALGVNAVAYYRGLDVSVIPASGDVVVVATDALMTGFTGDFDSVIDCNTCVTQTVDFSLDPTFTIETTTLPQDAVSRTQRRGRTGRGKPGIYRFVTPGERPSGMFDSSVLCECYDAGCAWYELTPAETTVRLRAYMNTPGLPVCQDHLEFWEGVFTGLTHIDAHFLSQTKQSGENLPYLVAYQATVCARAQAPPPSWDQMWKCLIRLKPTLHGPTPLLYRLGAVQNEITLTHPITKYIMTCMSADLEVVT
row,Ki [µM],Structure (SMILES)
1,0.04,"CC(=O)N[C@@H](CC(=O)O)C(=O)N[C@@H](CCC(=O)O)C(=O)N[C@H](C(=O)N[C@@H](CCC(=O)O)C(=O)N[C@@H](CC1CCCCC1)C(=O)N[C@@H](CC(F)F)C(=O)O)C(c1ccccc1)c1ccccc1 (Ac-DE[Dip]E[Cha][Abu(4,4-F2)]-OH)"

# Reference: ChEMBL document CHEMBL1135212, “Evolution, synthesis and SAR of tripeptide alpha-ketoacid inhibitors of the hepatitis C virus NS3/NS4A serine protease” (Bioorg Med Chem Lett, 2002)
